{
  "source": "patent US20240415814A1",
  "about": "“PHARMACEUTICAL COMPOSITION COMPRISING 1-(3-CYANO-1-ISOPROPYL-INDOL-5-YL)PYRAZOLE-4-CARBOXYLIC ACID” (LG CHEM, LTD., priority 2021, published 2024)",
  "system": "serum uric acid",
  "experiment": "Phase 2 clinical trial (NCT03934099): serum uric acid concentration in gout patients",
  "assay_type": "in vivo, human",
  "conditions": "for average maximum degree of reduction in serum uric acid: FIG. 3; for patients with serum uric acid concentration <6 mg/dL: gout patients, with colchicine 0.6 mg; for average serum uric acid concentration: within 2 weeks after starting administration",
  "description": "A phase 2 clinical trial was conducted to analyze the dosage, TEAEs, and the like when the compound of Formula 1 (1-(3-cyano-1-isopropyl-indol-5-yl)pyrazol-4-carboxylic acid; compound of Example 1) is administered to a gout patient group.\n• 1. Written informed consent (signed and dated) provided voluntarily prior to the start of the study. • 2. Male or female aged from 18 to 75 • 3. History or experience of hyperuricemia and gout in accordance with the criteria of the American College of Rheumatology. • 4. Self-reported history of 2 or more gout flare within 12 months prior to screening visit (Visit 1). • 5. Serum uric acid (sUA) levels at Visit 1 of 6.0 mg/dL or more in subjects who were receiving urate lower therapy (ULT) with allopurinol, febuxostat, probenecid, or lesinurad; and sUA levels at Visit 1 of 8.0 mg/dL or more and 12.0 mg/dL or less in subjects who had no history of receiving the ULT or were not receiving the ULT at visit 1. • 6. sUA levels of 8.0 mg/dL or more and 12.0 mg/dL or less at Visit 3. • 7. Body mass index of 42 kg/m^2 or less at screening visit (Visit 1). • 8. Estimated glomerular filtration rate (eGFR) of 60 mL/min/1.73 m^2 or more at screening visit (Visit 1). • 9. Subjects of childbearing potential with a negative pregnancy test result at screening visit (Visit 1). Subjects (female subjects of childbearing potential and male subjects with partners of childbearing potential) consented to use adequate methods of contraception to avoid pregnancy during the study period. • 10. Able to understand the study procedure and relevant risk, and willing to comply with the visit/protocol schedule.\n• 1. Presence of secondary hyperuricemia caused by myeloproliferative disorder, organ transplantation, or the like. • 2. Experience of any active acute gout flare within 3 weeks prior to screening visit (Visit 1). • 3. Aspartate aminotransferase or alanine aminotransferase level exceeds 2 times upper limit of normal (ULN) at screening visit (Visit 1). • 4. Creatine kinase level exceeds 2.5 times ULN at screening visit (Visit 1). • 5. Presence of previous hypersensitivity to colchicine. • 6. Patients who have ever prescribed pegloticase within 3 months prior to screening visit (Visit 1). • 7. If a stable dose of drugs (losartan, fibrate, thiazide diuretics, loop diuretics, and acetylsalicylic acid) known to affect sUA levels has not been administered during the past 6 weeks prior to screening visit (Visit 1), acetylsalicylic acid is not allowed to use 325 mg/day or more. • 8. Patients who have ever received systemic corticosteroids for 10 or more consecutive days within 1 month prior to screening visit (Visit 1). • 9. Presence of need or potential availability of systemic immunosuppressive drugs or immunomodulatory therapies (e.g., azathioprine, 6-mercaptopurine, and cyclosporine) • 10. Patients who have received high or moderate doses of cytochrome P450 3A4 inhibitors or P-glycoprotein inhibitors within 14 days prior to screening visit (Visit 1). • 11. History of xanthinuria. • 12. History of rheumatoid arthritis. • 13. Presence of active peptic ulcer disease requiring treatment. • 14. Presence of unstable angina, New York Heart Association class III or IV heart failure, myocardial infarction, stroke, deep vein thrombosis, percutaneous coronary intervention (with or without stent), or coronary artery bypass graft within the past 12 months prior to screening visit (Visit 1); current administration of anticoagulants; or the presence of clinically significant electrocardiogram abnormalities in the investigator's opinion at screening visit (Visit 1). • 15. Presence of uncontrolled hypertension (systolic blood pressure>160 mmHg or diastolic blood pressure>95 mmHg) at screening visit (Visit 1). • 16. History of myositis/myopathy, rhabdomyolysis, Stevens-Johnson syndrome, or toxic epidermal necrolysis. • 17. […]",
  "key": {"[1]": {"conditions": "200 mg/day oral, 12 weeks, listed as 1-(3-cyano-1-isopropyl-indol-5-yl)pyrazol-4-carboxylic acid"}, "[2]": {"conditions": "mild renal function impairment (eGFR 60-<90), 50 mg, 12 weeks"}, "[3]": {"conditions": "mild renal function impairment (eGFR 60-<90), 100 mg, 12 weeks"}, "[4]": {"conditions": "mild renal function impairment (eGFR 60-<90), 200 mg, 12 weeks"}, "[5]": {"conditions": "moderate renal function impairment (eGFR 30-<60), at each dose (50, 100, 200 mg), 12 weeks"}, "[6]": {"conditions": "normal renal function (eGFR>=90), 50 mg, 12 weeks"}, "[7]": {"conditions": "normal renal function (eGFR>=90), 100 mg, 12 weeks"}, "[8]": {"conditions": "normal renal function (eGFR>=90), 200 mg, 12 weeks"}},
  "data": [
    {"compound": "CC(C)n1cc(C#N)c2cc(-n3cc(C(=O)O)cn3)ccc21", "note": "[Example 1, 1-(3-cyano-1-isopropyl-indol-5-yl)pyrazol-4-carboxylic acid]", "values": [
      {"measurement": "average maximum degree of reduction in serum uric acid", "setting": "50 mg", "value": 46.7, "unit": "%"},
      {"measurement": "patients with serum uric acid concentration <4 mg/dL", "setting": "50 mg/day oral, 12 weeks", "value": "18% (6/34 people)"},
      {"measurement": "patients with serum uric acid concentration <6 mg/dL", "setting": "50 mg/day oral, 12 weeks", "value": 59, "unit": "%"},
      {"measurement": "average serum uric acid concentration", "setting": "50 mg/day", "value": 5.5, "unit": "mg/dL"},
      {"measurement": "average maximum degree of reduction in serum uric acid", "setting": "100 mg", "value": 50.6, "unit": "%"},
      {"measurement": "patients with serum uric acid concentration <4 mg/dL", "setting": "100 mg/day oral, 12 weeks", "value": "29% (11/38 people)"},
      {"measurement": "patients with serum uric acid concentration <6 mg/dL", "setting": "100 mg/day oral, 12 weeks", "value": 63, "unit": "%"},
      {"measurement": "average serum uric acid concentration", "setting": "100 mg/day", "value": 4.9, "unit": "mg/dL"},
      {"measurement": "average maximum degree of reduction in serum uric acid", "setting": "200 mg", "value": 66.8, "unit": "%"},
      {"measurement": "patients with serum uric acid concentration <4 mg/dL", "setting": "200 mg/day oral, 12 weeks", "value": "54% (20/37 people)"},
      {"measurement": "patients with serum uric acid concentration <6 mg/dL", "setting": "200 mg/day oral, 12 weeks", "value": 78, "unit": "%"},
      {"measurement": "patients with serum uric acid concentration <4 mg/dL", "setting": "[1]", "value": 54, "unit": "%"},
      {"measurement": "patients with serum uric acid concentration <5 mg/dL", "setting": "[1]", "value": 62, "unit": "%"},
      {"measurement": "average serum uric acid concentration", "setting": "200 mg/day", "value": 3.8, "unit": "mg/dL"},
      {"measurement": "serum uric acid concentration kept within the normal range during the dosing period", "setting": "doses of 50 mg, 100 mg and 200 mg, from week 2, FIG. 2", "value": "< 6.0", "unit": "mg/dL"},
      {"measurement": "patients adjusted to serum uric acid <5.0 mg/dL", "setting": "[2]", "value": 33, "unit": "%"},
      {"measurement": "patients adjusted to serum uric acid <6.0 mg/dL", "setting": "[2]", "value": 53, "unit": "%"},
      {"measurement": "patients adjusted to serum uric acid <5.0 mg/dL", "setting": "[3]", "value": 44, "unit": "%"},
      {"measurement": "patients adjusted to serum uric acid <6.0 mg/dL", "setting": "[3]", "value": 67, "unit": "%"},
      {"measurement": "patients adjusted to serum uric acid <5.0 mg/dL", "setting": "[4]", "value": 55, "unit": "%"},
      {"measurement": "patients adjusted to serum uric acid <6.0 mg/dL", "setting": "[4]", "value": 77, "unit": "%"},
      {"measurement": "patients adjusted to serum uric acid <5.0 mg/dL", "setting": "[5]", "value": "≥ 50", "unit": "%"},
      {"measurement": "patients adjusted to serum uric acid <6.0 mg/dL", "setting": "[5]", "value": "≥ 50", "unit": "%"},
      {"measurement": "patients adjusted to serum uric acid <5.0 mg/dL", "setting": "[6]", "value": 53, "unit": "%"},
      {"measurement": "patients adjusted to serum uric acid <6.0 mg/dL", "setting": "[6]", "value": 59, "unit": "%"},
      {"measurement": "patients adjusted to serum uric acid <5.0 mg/dL", "setting": "[7]", "value": 43, "unit": "%"},
      {"measurement": "patients adjusted to serum uric acid <6.0 mg/dL", "setting": "[7]", "value": 57, "unit": "%"},
      {"measurement": "patients adjusted to serum uric acid <5.0 mg/dL", "setting": "[8]", "value": 71, "unit": "%"},
      {"measurement": "patients adjusted to serum uric acid <6.0 mg/dL", "setting": "[8]", "value": 79, "unit": "%"}
    ]}
  ]
}
